From a melting point compilation (Tetko et al.; mined from patent text by program, amines drawn as free bases though some values may be those of a salt)
Residues, ends and D or L forms follow the SMILES beside them.

`CCN(CC)Cc1cc(C(=O)c2ccccc2)cc(C2CCCCC2)c1O` showed a melting point of 106 to 107 °C.
With `COCCCCCCOc1ccc(C#Cc2ccc(C(=O)O)cc2)cc1C12CC3CC(CC(C3)C1)C2` the melting point was 241 to 242 °C.
`O=C1CNCc2cc(-c3ccc(F)cc3)c(C=NO)c3ccn1c23` showed a melting point of 277 to 279 °C.
Work on `CCOC(Cc1ccc2oc(Cc3nc(-c4ccccc4)oc3C)cc2c1)C(N)=O` (centres undefined) yielded a melting point of 165 to 168 °C.
In the case of `CC(N)Cn1ncc2ccc3c(c21)CC(O)CO3` (centres undefined), the melting point was 46 to 51 °C.
For `CCOC(=O)/C(=C/c1conc1-c1ccc(OC)cc1OCc1ccccc1C(=O)OC)Cc1cc2c(cc1OC)OCO2`, the melting point was 135 to 137 °C.
For `COc1cc(C)cc(OC)c1-c1nc(N)n[nH]1`, the melting point was 286 °C.
Compound `CCCc1nc2c(C)cnc(C(=O)OC)c2n1Cc1ccc(-c2ccccc2-c2nnnn2C(c2ccccc2)(c2ccccc2)c2ccccc2)cc1` has a melting point of 239 to 242 °C.
`O=C(CNC1=Nc2ccc(Cl)cc2C(c2ccccc2Cl)=NC1)CN1C(=O)c2ccccc2C1=O` gave a melting point of 180 to 190 °C.
With `OCC1OC(n2cnc3c(NNC4CCSc5ccccc54)ncnc32)C(O)C1O` (centres undefined) the melting point was 105 to 107 °C.
For `COc1cc(CC(=O)N[C@@H](COC(=O)C(C)(C)C)Cc2ccccc2)ccc1OCCN`, the melting point was 70 to 74 °C.
With `O=C1c2cccc([N+](=O)[O-])c2C2CC(O)CCN12` (centres undefined) the melting point was greater than 260 °C.
`CCOCCOc1ccc(C(C)C)c(NC(=O)CN2CCN(CCCSc3nc4ccccc4o3)CC2)c1C(C)C` showed a melting point of 99 to 100 °C.
Work on `Cc1nc2sc3c(c2c2[nH][nH]c(=O)c12)CCN(C(=O)OC(C)(C)C)C3` yielded a melting point greater than 300 °C.
Work on `CCCCNC(=O)C(=O)NCCCCCBr` yielded a melting point of 109 to 110 °C.
`N#CC=C1CCN(c2ccc(N3C[C@H](CNC(=O)C(Cl)(Cl)Cl)OC3=O)cc2F)CC1` showed a melting point of 142 to 144 °C.
Compound `COc1c(C(=O)O)cc(Cl)c2c1CCCN2` has a melting point of 129 to 132 °C.
`CC(C)(C)OC(=O)C(CC(=O)O)N1C(=O)C2NC(C)(C)SC21` (centres undefined) showed a melting point of 137 to 138 °C.
With `Cc1nc(NC(=N)N)sc1C(=O)N1CC[C@@H](COCC(=O)O)C1` the melting point was 136 °C.
`C=CCNc1ccc(N(CC(O)CO)CC(O)CO)cc1[N+](=O)[O-]` (centres undefined) gave a melting point of 154 to 158 °C.
Compound `O=C(O)C1CCN(C(=O)NS(=O)(=O)C=Cc2ccccc2)CC1` has a melting point of 179 to 181 °C.
Compound `CCOC(=O)c1cn(CC)c2cc(N3CCN(C)CC3)ncc2c1=O` has a melting point of 176 to 177 °C.
In the case of `CNc1nc2c(C)cccc2c2c1ccn2-c1ccccc1C`, the melting point was 129 to 130 °C.
`C[Si](C)(C)O[C@@]1(C(F)(F)F)OCN(C(=O)OCc2ccccc2)[C@H]1Cc1ccccc1` showed a melting point of 98 to 101 °C.
`COc1ccc(-c2cccc(Cl)c2)cc1Cn1cncn1` showed a melting point of 78.2 to 78.4 °C.
For `O=C1Nc2ccccc2SC1CCCCN1CCN(c2ccc(F)cc2)CC1` (centres undefined), the melting point was 150 to 151 °C.
For `CC(C)(C)c1cc(O)cc(C(C)(C)C)c1Sc1nnc(-c2ccccn2)o1`, the melting point was 128 to 129 °C.
`Cc1ccnc(C(O)c2sc(NC(=N)N)nc2C)c1` (centres undefined) gave a melting point of 150 to 152 °C.
`COc1cccc(CCc2c(CCNC(=O)CCCCC(=O)NCCc3ccc(N)cc3)ccc(OC)c2OC)c1` gave a melting point of 163 to 165 °C.
Compound `C=CCN1CC(c2ccc(N)cc2F)CCS1(=O)=O` (centres undefined) has a melting point of 96 °C.
For `CCC(Nc1cc(C)nc(Oc2c(C)cc(Cl)cc2C)c1C(=O)OC)C(C)O` (centres undefined), the melting point was 133 to 135 °C.
With `Cn1c2c(c3cccc(-c4ccccc4)c31)C(=O)NCC2` the melting point was 242 to 245 °C.
`CN1Cc2cccnc2N(c2cccc(C(F)(F)F)c2)C1=O` gave a melting point of 122 to 124 °C.
Work on `COc1ccc(-c2nc3n(c2-c2ccc(OC)cc2)CCC3)cc1` yielded a melting point of 146 to 148 °C.
`CCOC(=O)C=Cc1ccc(N2CCCC2=O)cc1` showed a melting point of 134 °C.
`C=CC#CCn1c(-c2ccccc2)nc(C(F)(F)F)c(CC)c1=O` gave a melting point of 104 to 106 °C.
Work on `O=C(CC(=O)C1CC1)c1cccnn1` yielded a melting point of 85 to 87 °C.
With `O=c1c2ccccc2nc2n1CS(=O)(=O)N2` the melting point was greater than 300 °C.
In the case of `Cc1cn(-c2cc(NC(=O)c3ccc(C)c(/C=C/n4cnc5c(N)ncnc54)c3)cc(C(F)(F)F)c2)cn1`, the melting point was 258 °C.
In the case of `COc1ccc(C(O)Cc2ccccn2)cc1OC1CCCC1` (centres undefined), the melting point was 94 to 96 °C.
Compound `Fc1cccc(Cl)c1COc1cccnc1NC(=S)Nc1ccccc1` has a melting point of 143 to 145 °C.
For `CCOC(=O)Nc1cc(OCC)cc2c1CC(C)O2` (centres undefined), the melting point was 64 °C.
`COC(=O)C(Cc1ccccc1)NC(=O)C(CC(=O)O)NC(=O)C1CCCN1` (stereo not drawn) (H-Pro-Asp-Phe-OMe; configuration not given here) showed a melting point of 238 to 242 °C.
Compound `CNC(=O)c1cc(-c2c[nH]nc2-c2ccc(F)cc2)ccn1` has a melting point of 88 to 89 °C.
With `O=C(CSc1c(O)cc(-c2ccccc2)oc1=O)c1ccccc1` the melting point was 164 to 166 °C.
Work on `Nc1cc(Cl)c(N2CCCCC2)cc1-c1noc(=O)[nH]1` yielded a melting point of 186 to 189 °C.
Work on `CCc1cc2c(O)c(C(=O)OCC(C)C)cnc2s1` yielded a melting point of 156 to 158 °C.
For `Cc1ccc2nc(-c3ccccc3)cc(OCC(=O)N3CCOCC3)c2c1`, the melting point was 158 °C.
Work on `COc1cc(OC)cc(Sc2ccccc2C(=O)O)c1` yielded a melting point of 182 °C.
